Data: US10689354B2, “Aminoazole derivative” (Teijin Pharma Limited, priority 2015, dated 2020)

These molecules were tested against T1, androgen receptor (AR-LBD) (Rattus norvegicus, UniProt P15207) (assay: Evaluation of androgen receptor affinity (PolarScreen Androgen Receptor Competitor Assay Kit, Red; fluorescence polarization)). Conditions: 22° C. for 5 hours, relative to binding rate of 1 μM DHT, read-out: AR affinity (pEC50) (converted).
T1 construct: 5 μL of 2×AR-LBD/Fluoromone AL Red Complex contained in the kit; purchased Invitrogen
T1 sequence (P15207 651-882 limits assumed): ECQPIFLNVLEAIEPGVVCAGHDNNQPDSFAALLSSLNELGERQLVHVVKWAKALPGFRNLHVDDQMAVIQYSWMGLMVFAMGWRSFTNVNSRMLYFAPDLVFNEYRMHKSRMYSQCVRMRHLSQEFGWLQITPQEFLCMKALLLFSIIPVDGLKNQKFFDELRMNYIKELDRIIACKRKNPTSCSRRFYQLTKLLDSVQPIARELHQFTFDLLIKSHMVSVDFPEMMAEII
In short: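 Fluorescence polarization competition assay: compound was incubated in duplicate with the kit's AR-LBD/Fluoromone AL Red complex for 5 h at 22 °C. Binding was expressed relative to 1 μM DHT, and pEC50 was derived by 4-parameter fit.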

First: Cc1sc(N(Cc2ccccc2)CC(O)c2ccccc2)nc1C(=O)NS(C)(=O)=O (stereo not shown) [Compound 462, 2-[benzyl-(2-hydroxy-2-phenyl-ethyl)amino]-5-methyl-N-methylsulfonyl-thiazole-4-carboxamide]
Second: Cc1sc(N(Cc2ccccc2)c2ccccc2C#N)nc1C(=O)NS(C)(=O)=O [Example 233, 2-(N-benzyl-2-cyano-anilino)-5-methyl-N-methylsulfonyl-thiazole-4-carboxamide]
The EC50 of the first is lower: 1260 nM for the first, > 2000 nM for the second.

Cc1sc(N(CCC(O)CO)Cc2ccccc2)nc1C(=O)NS(C)(=O)=O (stereo not shown) [Compound 712, 2-[benzyl(3,4-dihydroxybutyl)amino]-5-methyl-N-methylsulfonyl-thiazole-4-carboxamide] and Cc1sc(N(C)Cc2ccccc2)nc1C(=O)NS(C)(=O)=O [Example 292, 2-[benzyl(methyl)amino]-5-methyl-N-methylsulfonyl-thiazole-4-carboxamide] cannot be ordered by EC50: > 2000 nM for the first, > 2000 nM for the second.

Cc1sc(N(Cc2ccccc2)c2ccc(C#N)cc2)nc1C(=O)NS(=O)(=O)c1cccnc1 [Compound 381, 2-(N-benzyl-4-cyano-anilino)-5-methyl-N-(3-pyridylsulfonyl)thiazole-4-carboxamide] and Cc1sc(N(Cc2cccc3cnccc23)c2ccc(C#N)cc2)nc1C(=O)NS(C)(=O)=O [Compound 402, 2-[4-cyano-N-(5-isoquinolylmethyl)anilino]-5-methyl-N-methylsulfonyl-thiazole-4-carboxamide] are within 1.5-fold of each other in EC50: 794 nM for the first, 1000 nM for the second.

Cc1sc(N(CC2CCC(N(C)C)CC2)c2ccc(C#N)cc2)nc1C(=O)NS(C)(=O)=O (stereo not shown) [Compound 352, 2-[4-cyano-N-[[4-(dimethylamino)cyclohexyl]methyl]anilino]-5-methyl-N-methylsulfonyl-thiazole-4-carboxamide] and Cc1sc(N(CC2CCC(=O)CC2)c2ccc(C#N)cc2)nc1C(=O)NS(C)(=O)=O [Compound 350, 2-[4-cyano-N-[(4-oxocyclohexyl)methyl]anilino]-5-methyl-N-methylsulfonyl-thiazole-4-carboxamide] cannot be ordered by EC50: > 2000 nM for the first, > 2000 nM for the second.

Cc1sc(N(Cc2ccccc2)c2cccc3c2ccn3C)nc1C(=O)NS(C)(=O)=O [Compound 337, 2-[benzyl-(1-methylindol-4-yl)amino]-5-methyl-N-methylsulfonyl-thiazole-4-carboxamide] and Cc1sc(N(Cc2ccccc2)c2cccc3cccnc23)nc1C(=O)NS(C)(=O)=O [Compound 53, 2-[benzyl(8-quinolyl)amino]-5-methyl-N-methylsulfonyl-thiazole-4-carboxamide] cannot be ordered by EC50: > 2000 nM for the first, > 2000 nM for the second.

Cc1sc(N(c2ccc(C#N)cc2)[C@H](CO)c2ccccc2)nc1C(=O)NS(C)(=O)=O [Compound 467, 2-(4-cyano-N-[(1S)-2-hydroxy-1-phenyl-ethyl]anilino)-5-methyl-N-methylsulfonyl-thiazole-4-carboxamide] and Cc1sc(N(CC(O)c2ccccc2)c2ccc(C#N)cc2)nc1C(=O)NS(C)(=O)=O (stereo not shown) [Compound 468, 2-(4-cyano-N-(2-hydroxy-2-phenyl-ethyl)anilino)-5-methyl-N-methylsulfonyl-thiazole-4-carboxamide] cannot be ordered by EC50: > 2000 nM for the first, > 2000 nM for the second.

Cc1sc(N(Cc2ccccc2)c2cccc(O)c2)nc1C(=O)NS(C)(=O)=O [Example 205, 2-(N-benzyl-3-hydroxy-anilino)-5-methyl-N-methylsulfonyl-thiazole-4-carboxamide] and Cc1sc(N(Cc2ccccc2)c2cccc(CO)c2)nc1C(=O)NS(C)(=O)=O [Example 229, 2-[N-benzyl-3-(hydroxymethyl)anilino]-5-methyl-N-methylsulfonyl-thiazole-4-carboxamide] cannot be ordered by EC50: > 2000 nM for the first, > 2000 nM for the second.

Cc1sc(N(Cc2ccccc2)Cc2ccc(C#N)cc2)nc1C(=O)NS(C)(=O)=O [Example 289, 2-[benzyl-[(4-cyanophenyl)methyl]amino]-5-methyl-N-methylsulfonyl-thiazole-4-carboxamide] and Cc1sc(N(Cc2ccccc2)Cc2cccc(C#N)c2)nc1C(=O)NS(C)(=O)=O [Example 290, 2-[benzyl-[(3-cyanophenyl)methyl]amino]-5-methyl-N-methylsulfonyl-thiazole-4-carboxamide] cannot be ordered by EC50: > 2000 nM for the first, > 2000 nM for the second.

Cc1sc(N(CCn2nccc2C)Cc2ccccc2)nc1C(=O)NS(C)(=O)=O [Compound 682, 2-[benzyl-[2-(5-methylpyrazol-1-yl)ethyl]amino]-5-methyl-N-methylsulfonyl-thiazole-4-carboxamide] and Cc1sc(N(CCn2cccc2)Cc2ccccc2)nc1C(=O)NS(C)(=O)=O [Example 309, 2-[benzyl(2-pyrrol-1-ylethyl)amino]-5-methyl-N-methylsulfonyl-thiazole-4-carboxamide] cannot be ordered by EC50: > 2000 nM for the first, > 2000 nM for the second.

Cc1sc(N(Cc2ccccc2)c2ccc(OCC(=O)N(C)C)cc2)nc1C(=O)NS(C)(=O)=O [Example 214, 2-[N-benzyl-4-[2-(dimethylamino)-2-oxo-ethoxy]anilino]-5-methyl-N-methylsulfonyl-thiazole-4-carboxamide] and Cc1sc(N(Cc2ccccc2)c2ccc(OCCOCc3ccccc3)cc2)nc1C(=O)NS(C)(=O)=O [Example 209, 2-[N-benzyl-4-(2-benzyloxyethoxy)anilino]-5-methyl-N-methylsulfonyl-thiazole-4-carboxamide] cannot be ordered by EC50: > 2000 nM for the first, > 2000 nM for the second.

Going from Cc1sc(N(Cc2cccc3nonc23)c2ccc(C#N)cc2)nc1C(=O)NS(C)(=O)=O [Compound 92, 2-[N-(2,1,3-benzoxadiazol-4-ylmethyl)-4-cyano-anilino]-5-methyl-N-methylsulfonyl-thiazole-4-carboxamide] to Cc1sc(N(CC(C)C)c2ccc(C#N)cc2)nc1C(=O)NS(C)(=O)=O [Compound 73, 2-(4-cyano-N-isobutyl-anilino)-5-methyl-N-methylsulfonyl-thiazole-4-carboxamide], the EC50 rises from 158 nM to > 2000 nM.

Cc1sc(N(Cc2ccccc2)Cc2ccncc2)nc1C(=O)NS(C)(=O)=O [Example 296, 2-[benzyl(4-pyridylmethyl)amino]-5-methyl-N-methylsulfonyl-thiazole-4-carboxamide] and Cc1sc(N(Cc2ccccc2)c2cccc(CCOCc3ccccc3)c2)nc1C(=O)NS(C)(=O)=O [Example 231, 2-[N-benzyl-3-(2-benzyloxyethyl)anilino]-5-methyl-N-methylsulfonyl-thiazole-4-carboxamide] cannot be ordered by EC50: > 2000 nM for the first, > 2000 nM for the second.

Going from Cc1sc(N(Cc2ccc(OCCN3CCCC3=O)cc2)c2ccc(C#N)cc2)nc1C(=O)NS(C)(=O)=O [Compound 575, 2-[4-cyano-N-[[4-[2-(2-oxopyrrolidin-1-yl)ethoxy]phenyl]methyl]anilino]-5-methyl-N-methylsulfonyl-thiazole-4-carboxamide] to Cc1sc(N(CC(=O)N2CCCCC2)c2ccc(C#N)cc2)nc1C(=O)NS(C)(=O)=O [Compound 72, 2-(4-cyano-N-[2-oxo-2-(1-piperidyl)ethyl]anilino)-5-methyl-N-methylsulfonyl-thiazole-4-carboxamide], the EC50 rises from 398 nM to > 2000 nM.

Cc1sc(N(CCOC(C)C)c2ccc(C#N)cc2)nc1C(=O)NS(C)(=O)=O [Compound 449, 2-[4-cyano-N-(2-isopropoxyethyl)anilino]-5-methyl-N-methylsulfonyl-thiazole-4-carboxamide] and CC[C@H](C)CN(c1ccc(C#N)cc1)c1nc(C(=O)NS(C)(=O)=O)c(C)s1 [Compound 446, 2-(4-cyano-N-[(2S)-2-methylbutyl]anilino)-5-methyl-N-methylsulfonyl-thiazole-4-carboxamide] are within 1.5-fold of each other in EC50: 398 nM for the first, 316 nM for the second.
